Publication PMC9838390, “Discovery and biosynthesis of karnamicins as angiotensin converting enzyme inhibitors” (Nature Communications, 2023)
Several values for one entry are separate records, joined by “and”; a condition that tells them apart may be missing. Equal entries are not always repeated.

Columns and labels:
[1] = system: KnmB2; assay: NADPH oxidation of KnmB2 and variants (340 nm); type: biochemical, L. rhizosphaerae NEAU-A2
Experimental: Hydrogen peroxide formation assay and NADPH oxidation
The hydrogen peroxide formed from KnmB1, KnmB2 and their variants were measured using the Hydrogen Peroxide Assay Kit (Beyotime Industrial Co. Ltd, Shanghai, China)4-5. 5–100 µL of enzyme reaction mixture was added to 100 µL of working reagent (S0038-1). The mixture was incubated for 30 min at 25 °C, at which time the absorbance at 560 nm was measured by NanoDrop 2000c (Fisher Scientific). The level of H2O2 was calculated according to a standard concentration curve from standard […]
(§1) NADPH detection was carried out in the cuvette by NanoDrop 2000c (Fisher Scientific). NADPH signal at 340 nm was monitored in time using 6220 M–1 cm–1 as […]
(§2) Spectral data for new compounds […]
Reaction conditions: 50 mM Tris-HCl buffer (pH 7.5),
0.15 mM NADPH, and 2 μM KnmB1 or KnmB2. […]
μM KnmB1 or variants, or 0.1 mM substrate 24/32/36. (h) NADPH oxidation of KnmB2 and variants. (i) NADPH oxidation of KnmB2 and variants in the presence 24 or 32. (j) H2O2 generation for KnmB2 and variants in the presence 24 or 32. Reaction conditions (h-j) for KnmB2 and their variants: 50 mM Tris-HCl buffer (pH 7.5), 0.15 mM NADPH, 2 μM KnmB2 or variants, or 0.1 mM substrate 24/32. Values are the means ± SD of n = 3 independent experiments, except for KnmB2+24 (T = 40 min), KnmB2-N219D+24 (T = 4 min), KnmB2-Y215F+24 (T= 1 min and 3 min) in i and j, and KnmB2+32 (T= 8 min) in j (n = 2). Source data are provided as a Source Data file. […]

[2] = system: KnmB1; assay: NADPH oxidation of KnmB1 and variants (340 nm); type: biochemical, L. rhizosphaerae NEAU-A2
Experimental: Hydrogen peroxide formation assay and NADPH oxidation […]
as §1, §2
Reaction conditions: 50 mM Tris-HCl buffer (pH 7.5), 0.15 mM NADPH, and 2 μM KnmB1 or KnmB2. (e) NADPH oxidation of KnmB1 and variants. (f) NADPH oxidation of KnmB1 in the presence 24/32/36. (g) NADPH oxidation of KnmB1 and variants in the presence 24. Reaction conditions (e-g) for KnmB1 and their variants: 50 mM Tris-HCl buffer (pH 7.5), 0.15 mM NADPH, and 6 μM KnmB1 or variants, or 0.1 mM substrate 24/32/36. […]
2 μM KnmB2 or variants, or 0.1 mM substrate 24/32. […]
Source data are provided as a Source Data file. […]

CC(C)CCCCc1nc(-c2cc(O)cc(C(N)=O)n2)cs1 [Compound 24]
NADPH oxidation, average value ([1]; KnmB2+24, Time 0): 0.0000 µM
NADPH oxidation, average value ([1]; KnmB2+24, Time 1): 5.8950 µM
NADPH oxidation, average value ([1]; KnmB2+24, Time 2): 11.0397 µM
NADPH oxidation, average value ([1]; KnmB2+24, Time 3): 17.6849 µM
NADPH oxidation, average value ([1]; KnmB2+24, Time 4): 25.7235 µM
NADPH oxidation, average value ([1]; KnmB2+24, Time 5): 35.2090 µM
NADPH oxidation, average value ([1]; KnmB2+24, Time 8): 55.4662 µM
NADPH oxidation, average value ([1]; KnmB2+24, Time 10): 66.9346 µM
NADPH oxidation, average value ([1]; KnmB2+24, Time 15): 84.8339 µM
NADPH oxidation, average value ([1]; KnmB2+24, Time 20): 95.5520 µM
NADPH oxidation, average value ([1]; KnmB2+24, Time 30): 104.1265 µM
NADPH oxidation, average value ([1]; KnmB2+24, Time 40): 102.4920 µM
NADPH oxidation, average value ([1]; KnmB2+24, Time 60): 111.3076 µM
NADPH oxidation, average value ([1]; KnmB2-F205A+24, Time 0): 0.0000 µM
NADPH oxidation, average value ([1]; KnmB2-F205A+24, Time 1): 0.7985 µM
NADPH oxidation, average value ([1]; KnmB2-F205A+24, Time 2): 1.4255 µM
NADPH oxidation, average value ([1]; KnmB2-F205A+24, Time 3): 1.3880 µM
NADPH oxidation, average value ([1]; KnmB2-F205A+24, Time 4): 1.7631 µM
NADPH oxidation, average value ([1]; KnmB2-F205A+24, Time 5): 1.7310 µM
NADPH oxidation, average value ([1]; KnmB2-F205A+24, Time 8): 1.8274 µM
NADPH oxidation, average value ([1]; KnmB2-F205A+24, Time 10): 2.3312 µM
NADPH oxidation, average value ([1]; KnmB2-F205A+24, Time 15): 2.6313 µM
NADPH oxidation, average value ([1]; KnmB2-F205A+24, Time 20): 3.4566 µM
NADPH oxidation, average value ([1]; KnmB2-F205A+24, Time 30): 5.0911 µM
NADPH oxidation, average value ([1]; KnmB2-F205A+24, Time 40): 7.7546 µM
NADPH oxidation, average value ([1]; KnmB2-F205A+24, Time 60): 10.8575 µM
NADPH oxidation, average value ([1]; KnmB2-N291D+24, Time 0): 0.0000 µM
NADPH oxidation, average value ([1]; KnmB2-N291D+24, Time 2): 1.4470 µM
NADPH oxidation, average value ([1]; KnmB2-N291D+24, Time 4): 2.7331 µM
NADPH oxidation, average value ([1]; KnmB2-N291D+24, Time 5): 4.2337 µM
NADPH oxidation, average value ([1]; KnmB2-N291D+24, Time 8): 6.8060 µM
NADPH oxidation, average value ([1]; KnmB2-N291D+24, Time 10): 8.5745 µM
NADPH oxidation, average value ([1]; KnmB2-N291D+24, Time 15): 11.8971 µM
NADPH oxidation, average value ([1]; KnmB2-N291D+24, Time 20): 16.3451 µM
NADPH oxidation, average value ([1]; KnmB2-N291D+24, Time 30): 24.5445 µM
NADPH oxidation, average value ([1]; KnmB2-N291D+24, Time 40): 34.3516 µM
NADPH oxidation, average value ([1]; KnmB2-N291D+24, Time 60): 49.1426 µM
NADPH oxidation, average value ([1]; KnmB2-Y215A+24, Time 0): 0.0000 µM
NADPH oxidation, average value ([1]; KnmB2-Y215A+24, Time 1): 0.2519 µM
NADPH oxidation, average value ([1]; KnmB2-Y215A+24, Time 2): 0.5145 µM
NADPH oxidation, average value ([1]; KnmB2-Y215A+24, Time 3): 0.7020 µM
NADPH oxidation, average value ([1]; KnmB2-Y215A+24, Time 4): 0.6913 µM
NADPH oxidation, average value ([1]; KnmB2-Y215A+24, Time 5): 0.7449 µM
NADPH oxidation, average value ([1]; KnmB2-Y215A+24, Time 8): 0.9968 µM
NADPH oxidation, average value ([1]; KnmB2-Y215A+24, Time 10): 1.3237 µM
NADPH oxidation, average value ([1]; KnmB2-Y215A+24, Time 15): 2.0043 µM
NADPH oxidation, average value ([1]; KnmB2-Y215A+24, Time 20): 2.2883 µM
NADPH oxidation, average value ([1]; KnmB2-Y215A+24, Time 30): 3.8532 µM
NADPH oxidation, average value ([1]; KnmB2-Y215A+24, Time 40): 5.5520 µM
NADPH oxidation, average value ([1]; KnmB2-Y215A+24, Time 60): 9.2926 µM
NADPH oxidation, average value ([1]; KnmB2-Y215F+24, Time 0): 0.0000 µM
NADPH oxidation, average value ([1]; KnmB2-Y215F+24, Time 1): 2.5724 µM
NADPH oxidation, average value ([1]; KnmB2-Y215F+24, Time 2): 4.4480 µM
NADPH oxidation, average value ([1]; KnmB2-Y215F+24, Time 3): 6.5113 µM
NADPH oxidation, average value ([1]; KnmB2-Y215F+24, Time 4): 8.5745 µM
NADPH oxidation, average value ([1]; KnmB2-Y215F+24, Time 5): 12.2187 µM
NADPH oxidation, average value ([1]; KnmB2-Y215F+24, Time 8): 19.5606 µM
NADPH oxidation, average value ([1]; KnmB2-Y215F+24, Time 10): 24.7588 µM
NADPH oxidation, average value ([1]; KnmB2-Y215F+24, Time 15): 37.2990 µM
NADPH oxidation, average value ([1]; KnmB2-Y215F+24, Time 20): 48.1779 µM
NADPH oxidation, average value ([1]; KnmB2-Y215F+24, Time 30): 66.6667 µM
NADPH oxidation, average value ([1]; KnmB2-Y215F+24, Time 40): 81.1361 µM
NADPH oxidation, average value ([1]; KnmB2-Y215F+24, Time 60): 100.0536 µM
coupling efficiency ([1]; hydroxylatable effector for KnmB2, from NADPH consumption and H2O2 formation in time): 0–45%
effector action on reduction of flavin in KnmB1 by NADPH ([2]; 0.15 mM NADPH, 6 μM KnmB1, 0.1 mM compound (Fig. S131f)): could act as a non-substrate effector
NADPH oxidation of KnmB1 in the presence of compound (replicates 1, 2, 3) ([2]; Time 0): 0.0000 µM
NADPH oxidation of KnmB1 in the presence of compound, average value ([2]; Time 0): 0.0000 µM
NADPH oxidation of KnmB1 in the presence of compound (replicates 1, 2, 3) ([2]; Time 1): 2.9582 µM and 2.2830 µM and 2.5080 µM
NADPH oxidation of KnmB1 in the presence of compound, average value ([2]; Time 1): 2.5831 µM
NADPH oxidation of KnmB1 in the presence of compound (replicates 1, 2, 3) ([2]; Time 2): 6.8489 µM and 4.6945 µM and 5.9164 µM
NADPH oxidation of KnmB1 in the presence of compound, average value ([2]; Time 2): 5.8199 µM
NADPH oxidation of KnmB1 in the presence of compound (replicates 1, 2, 3) ([2]; Time 3): 8.2797 µM and 6.4309 µM and 6.4630 µM
NADPH oxidation of KnmB1 in the presence of compound, average value ([2]; Time 3): 7.0579 µM
NADPH oxidation of KnmB1 in the presence of compound (replicates 1, 2, 3) ([2]; Time 4): 9.7106 µM and 8.7942 µM and 8.6174 µM
NADPH oxidation of KnmB1 in the presence of compound, average value ([2]; Time 4): 9.0407 µM
NADPH oxidation of KnmB1 in the presence of compound (replicates 1, 2, 3) ([2]; Time 5): 11.9293 µM and 10.4662 µM and 10.1447 µM
NADPH oxidation of KnmB1 in the presence of compound, average value ([2]; Time 5): 10.8467 µM
NADPH oxidation of KnmB1 in the presence of compound (replicates 1, 2, 3) ([2]; Time 8): 16.3826 µM and 16.8650 µM and 14.9839 µM
NADPH oxidation of KnmB1 in the presence of compound, average value ([2]; Time 8): 16.0772 µM
NADPH oxidation of KnmB1 in the presence of compound (replicates 1, 2, 3) ([2]; Time 10): 19.9679 µM and 20.5788 µM and 17.6688 µM
NADPH oxidation of KnmB1 in the presence of compound, average value ([2]; Time 10): 19.4051 µM
NADPH oxidation of KnmB1 in the presence of compound (replicates 1, 2, 3) ([2]; Time 15): 26.9614 µM and 30.3537 µM and 23.0064 µM
NADPH oxidation of KnmB1 in the presence of compound, average value ([2]; Time 15): 26.7739 µM
NADPH oxidation of KnmB1 in the presence of compound (replicates 1, 2, 3) ([2]; Time 20): 35.3859 µM and 38.9550 µM and 30.1286 µM
NADPH oxidation of KnmB1 in the presence of compound, average value ([2]; Time 20): 34.8232 µM
NADPH oxidation of KnmB1 in the presence of compound (replicates 1, 2, 3) ([2]; Time 30): 48.2476 µM and 54.0515 µM and 41.3344 µM
NADPH oxidation of KnmB1 in the presence of compound, average value ([2]; Time 30): 47.8778 µM
NADPH oxidation of KnmB1 in the presence of compound (replicates 1, 2, 3) ([2]; Time 40): 59.6785 µM and 66.9936 µM and 50.7878 µM
NADPH oxidation of KnmB1 in the presence of compound, average value ([2]; Time 40): 59.1533 µM
NADPH oxidation of KnmB1 in the presence of compound (replicates 1, 2, 3) ([2]; Time 60): 78.3119 µM and 86.3505 µM and 66.4309 µM
NADPH oxidation of KnmB1 in the presence of compound, average value ([2]; Time 60): 77.0311 µM
